The source of these data is ChEMBL document CHEMBL3593212, “Synthesis and evaluation of novel 1H-pyrrolo[2,3-b]pyridine-5-carboxamide derivatives as potent and orally efficacious immunomodulators targeting JAK3” (Bioorg Med Chem, 2015).

Some results are limits rather than exact numbers.

The IC50 is the concentration at which inhibition is half-maximal. What is called Cmax is the highest concentration seen after dosing. For orientation: Tmax means the time from dosing to the highest level. Usually half-life stands for the time needed for the level to fall by half in the phase considered.

Data set [1] concerns the target Tyrosine-protein kinase ITK/TSK (Homo sapiens, UniProt Q08881). In words: Inhibition of ITK (unknown origin).
The nature of data set [2]: Intrinsic clearance in human liver microsomes at 0.2 uM in presence of NADPH generating system by LC/MS/MS method. The class given is ADME. Conditions: read-out: CLH. Background: Microsomes from liver hold many membrane-bound enzymes, among them those of drug oxidation.
Data set [3] has as its target Glycogen synthase kinase-3 beta (Homo sapiens, UniProt P49841). Put plainly: Inhibition of GSK3beta (unknown origin).
A short description of data set [4]: Cmax in Sprague-Dawley rat at 3 mg/kg, po by LC/MS/MS method. Type of data set: ADME, organism-based. On the set-up: dose 3 mg/kg, route oral. Conditions: in vivo.
In data set [5] the target is Calcium/calmodulin-dependent protein kinase type II subunit alpha (Homo sapiens, UniProt Q9UQM7). In words: Inhibition of CaMK2a (unknown origin).
Data set [6] deals with Tyrosine-protein kinase BTK (Homo sapiens, UniProt Q06187). Put plainly: Inhibition of BTK (unknown origin).
Data set [7] deals with Ribosomal protein S6 kinase beta-1 (Homo sapiens, UniProt P23443). Put plainly: Inhibition of p70S6K (unknown origin).
For data set [8], the target named is Voltage-gated inwardly rectifying potassium channel KCNH2 (Homo sapiens, UniProt Q12809).
Description: Inhibition of human ERG expressed in CHOK1 cells incubated for 10 mins by Rb efflux assay
A short description of data set [9]: Intrinsic clearance in rat liver microsomes at 0.2 uM in presence of NADPH generating system by LC/MS/MS method. The following applies: read-out: CLH. Type of data set: ADME.
Data set [10] has as its target RAF proto-oncogene serine/threonine-protein kinase (Homo sapiens, UniProt P04049). In words: Inhibition of RAF1 (unknown origin).
Data set [11] concerns the target Angiopoietin-1 receptor (Homo sapiens, UniProt Q02763). Put plainly: Inhibition of TIE2 (unknown origin).
Data set [12] has as its target Tyrosine-protein kinase ZAP-70 (Homo sapiens, UniProt P43403). In words: Inhibition of ZAP70 (unknown origin).
The target in data set [13] is Rho-associated protein kinase 1 (Homo sapiens, UniProt Q13464). In words: Inhibition of ROCK1 (unknown origin).
The nature of data set [14]: Tmax in Sprague-Dawley rat at 3 mg/kg, po by LC/MS/MS method. Type of data set: ADME, organism-based. The following applies: in vivo.
A short description of data set [15]: Tmax in beagle dog at 3 mg/kg, po by LC/MS/MS method. Type of data set: ADME, organism-based, Canis lupus familiaris. Conditions: in vivo.
Data set [16] has as its target Aurora kinase C (Homo sapiens, UniProt Q9UQB9). In words: Inhibition of AurC (unknown origin).
The target in data set [17] is Insulin-like growth factor 1 receptor (Homo sapiens, UniProt P08069). In words: Inhibition of IGF1R (unknown origin).
Data set [18] is described as follows: Half life in cynomolgus monkey at 1 mg/kg, iv by LC/MS/MS method. The class given is ADME, organism-based, Macaca fascicularis. Conditions: in vivo.
Data set [19] is described as follows: Effective permeability of the compound at pH 7.4 by PAMPA method. The class given is physicochemical. The following applies: read-out: Peff. A general note: In PAMPA a lipid-coated filter parts donor from acceptor wells.
A short description of data set [20]: Intrinsic clearance in cynomolgus monkey liver microsomes at 0.2 uM in presence of NADPH generating system by LC/MS/MS method. The class given is ADME, Macaca fascicularis. Conditions: read-out: CLH.
Data set [21] can be described thus: Inhibition of JAK1/JAK3 in Lewis rat splenocytes assessed as reduction in IL2-stimulated T-cell proliferation incubated for 3 days by alamar blue dye based fluorescence assay. Conditions: 72 h.

Glycogen synthase kinase-3 beta, sequence (P49841 whole entry): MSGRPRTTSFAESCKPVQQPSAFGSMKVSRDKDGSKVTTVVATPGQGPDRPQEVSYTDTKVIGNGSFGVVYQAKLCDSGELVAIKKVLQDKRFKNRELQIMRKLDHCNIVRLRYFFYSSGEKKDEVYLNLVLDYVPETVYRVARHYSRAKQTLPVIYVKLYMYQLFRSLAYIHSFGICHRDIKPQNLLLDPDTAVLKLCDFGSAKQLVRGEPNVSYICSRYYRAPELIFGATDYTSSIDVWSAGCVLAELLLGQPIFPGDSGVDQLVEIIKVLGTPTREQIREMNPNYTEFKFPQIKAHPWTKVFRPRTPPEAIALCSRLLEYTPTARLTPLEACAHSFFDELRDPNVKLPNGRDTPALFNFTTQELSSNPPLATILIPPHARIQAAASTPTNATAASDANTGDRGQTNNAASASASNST
Calcium/calmodulin-dependent protein kinase type II subunit alpha, sequence (Q9UQM7 whole entry): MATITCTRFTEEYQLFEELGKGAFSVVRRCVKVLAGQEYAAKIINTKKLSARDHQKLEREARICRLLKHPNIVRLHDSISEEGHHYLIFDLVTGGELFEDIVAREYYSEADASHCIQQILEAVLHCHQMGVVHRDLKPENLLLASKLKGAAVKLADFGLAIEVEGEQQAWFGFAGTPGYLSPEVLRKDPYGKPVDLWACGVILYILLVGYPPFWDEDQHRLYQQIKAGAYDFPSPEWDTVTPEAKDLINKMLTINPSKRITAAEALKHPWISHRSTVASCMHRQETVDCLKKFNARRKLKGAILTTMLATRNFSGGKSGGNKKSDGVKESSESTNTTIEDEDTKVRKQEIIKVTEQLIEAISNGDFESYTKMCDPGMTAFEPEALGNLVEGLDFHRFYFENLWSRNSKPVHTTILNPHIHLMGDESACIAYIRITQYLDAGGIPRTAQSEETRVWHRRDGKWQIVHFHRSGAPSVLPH
Tyrosine-protein kinase BTK, sequence (Q06187 whole entry): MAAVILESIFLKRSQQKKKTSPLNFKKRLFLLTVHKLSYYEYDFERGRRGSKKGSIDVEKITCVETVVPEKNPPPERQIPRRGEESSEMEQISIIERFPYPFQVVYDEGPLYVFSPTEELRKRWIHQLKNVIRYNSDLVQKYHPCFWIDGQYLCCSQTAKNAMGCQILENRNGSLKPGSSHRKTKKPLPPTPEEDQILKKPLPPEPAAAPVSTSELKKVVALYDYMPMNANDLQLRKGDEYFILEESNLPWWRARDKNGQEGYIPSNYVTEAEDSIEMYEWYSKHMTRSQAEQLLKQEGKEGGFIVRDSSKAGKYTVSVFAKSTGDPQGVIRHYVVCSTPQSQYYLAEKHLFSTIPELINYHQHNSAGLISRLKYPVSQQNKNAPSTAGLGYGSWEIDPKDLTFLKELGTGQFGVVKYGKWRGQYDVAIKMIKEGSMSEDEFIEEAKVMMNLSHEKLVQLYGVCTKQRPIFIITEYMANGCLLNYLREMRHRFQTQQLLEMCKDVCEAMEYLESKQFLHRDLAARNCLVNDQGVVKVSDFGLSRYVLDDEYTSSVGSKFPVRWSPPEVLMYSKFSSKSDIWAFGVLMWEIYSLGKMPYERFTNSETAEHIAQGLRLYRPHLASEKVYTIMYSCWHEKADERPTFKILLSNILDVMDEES
Voltage-gated inwardly rectifying potassium channel KCNH2, sequence (Q12809 whole entry): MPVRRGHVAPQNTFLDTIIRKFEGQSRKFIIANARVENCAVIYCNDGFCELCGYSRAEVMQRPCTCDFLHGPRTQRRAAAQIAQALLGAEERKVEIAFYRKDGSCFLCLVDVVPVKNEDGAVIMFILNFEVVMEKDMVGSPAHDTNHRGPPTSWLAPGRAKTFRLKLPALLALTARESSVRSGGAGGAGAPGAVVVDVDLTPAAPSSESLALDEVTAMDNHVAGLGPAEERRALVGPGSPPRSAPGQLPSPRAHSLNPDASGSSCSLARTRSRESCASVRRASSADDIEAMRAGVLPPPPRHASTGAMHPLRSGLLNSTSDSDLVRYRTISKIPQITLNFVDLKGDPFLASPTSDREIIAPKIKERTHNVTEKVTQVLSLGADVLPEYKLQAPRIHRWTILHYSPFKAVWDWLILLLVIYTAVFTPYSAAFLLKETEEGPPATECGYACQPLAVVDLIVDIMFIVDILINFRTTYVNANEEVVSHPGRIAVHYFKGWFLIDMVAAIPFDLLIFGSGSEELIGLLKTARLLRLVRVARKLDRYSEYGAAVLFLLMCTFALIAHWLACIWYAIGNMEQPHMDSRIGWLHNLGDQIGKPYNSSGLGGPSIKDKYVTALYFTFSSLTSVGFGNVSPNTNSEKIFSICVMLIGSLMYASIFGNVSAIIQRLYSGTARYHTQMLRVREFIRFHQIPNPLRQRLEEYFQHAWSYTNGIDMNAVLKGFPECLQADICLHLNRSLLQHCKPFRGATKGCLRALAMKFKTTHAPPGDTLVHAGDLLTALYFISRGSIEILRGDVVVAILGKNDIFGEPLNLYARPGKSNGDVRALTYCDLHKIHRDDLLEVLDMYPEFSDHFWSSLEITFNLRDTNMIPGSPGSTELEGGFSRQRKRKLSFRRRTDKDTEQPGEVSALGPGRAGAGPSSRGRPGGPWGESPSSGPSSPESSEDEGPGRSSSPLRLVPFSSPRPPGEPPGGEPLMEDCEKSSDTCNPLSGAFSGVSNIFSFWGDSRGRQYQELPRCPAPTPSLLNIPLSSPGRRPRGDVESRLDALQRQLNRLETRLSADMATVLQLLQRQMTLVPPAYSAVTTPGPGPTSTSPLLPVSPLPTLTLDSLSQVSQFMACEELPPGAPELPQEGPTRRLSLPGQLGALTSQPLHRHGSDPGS
Ribosomal protein S6 kinase beta-1, sequence (P23443 whole entry): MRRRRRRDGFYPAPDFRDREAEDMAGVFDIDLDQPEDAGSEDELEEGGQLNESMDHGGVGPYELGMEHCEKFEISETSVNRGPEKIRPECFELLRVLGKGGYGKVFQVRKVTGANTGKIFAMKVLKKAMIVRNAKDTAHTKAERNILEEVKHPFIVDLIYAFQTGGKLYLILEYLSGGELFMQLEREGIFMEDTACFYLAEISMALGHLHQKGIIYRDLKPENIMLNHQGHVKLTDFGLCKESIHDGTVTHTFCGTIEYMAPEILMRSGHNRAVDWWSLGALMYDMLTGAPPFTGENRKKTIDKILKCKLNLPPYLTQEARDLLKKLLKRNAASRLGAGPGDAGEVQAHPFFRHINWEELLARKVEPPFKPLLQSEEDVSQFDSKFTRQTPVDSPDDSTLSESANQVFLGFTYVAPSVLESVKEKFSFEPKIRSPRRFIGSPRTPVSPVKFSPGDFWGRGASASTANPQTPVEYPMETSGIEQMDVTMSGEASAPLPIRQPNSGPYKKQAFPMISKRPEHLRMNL
Insulin-like growth factor 1 receptor, sequence (P08069 31-736 limits assumed): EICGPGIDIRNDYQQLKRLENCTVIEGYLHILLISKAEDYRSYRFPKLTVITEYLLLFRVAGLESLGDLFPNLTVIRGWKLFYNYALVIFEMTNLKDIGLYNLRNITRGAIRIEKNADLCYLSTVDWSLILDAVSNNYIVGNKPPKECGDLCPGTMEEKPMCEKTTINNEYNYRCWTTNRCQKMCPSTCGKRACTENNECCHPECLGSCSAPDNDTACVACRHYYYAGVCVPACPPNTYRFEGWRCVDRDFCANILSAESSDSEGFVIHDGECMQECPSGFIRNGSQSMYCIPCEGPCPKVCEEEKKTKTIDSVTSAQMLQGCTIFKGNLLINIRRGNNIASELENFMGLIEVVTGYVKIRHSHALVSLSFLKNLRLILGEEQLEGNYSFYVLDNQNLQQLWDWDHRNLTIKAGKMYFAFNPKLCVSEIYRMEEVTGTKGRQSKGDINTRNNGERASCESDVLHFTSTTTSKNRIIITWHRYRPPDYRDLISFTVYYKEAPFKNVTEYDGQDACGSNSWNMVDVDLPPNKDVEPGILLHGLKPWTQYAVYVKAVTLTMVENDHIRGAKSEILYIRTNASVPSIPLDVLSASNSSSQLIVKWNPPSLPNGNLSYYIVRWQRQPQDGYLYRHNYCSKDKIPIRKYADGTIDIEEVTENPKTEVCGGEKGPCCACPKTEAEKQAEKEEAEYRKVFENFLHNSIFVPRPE
Insulin-like growth factor 1 receptor, sequence (P08069 741-1367 limits assumed): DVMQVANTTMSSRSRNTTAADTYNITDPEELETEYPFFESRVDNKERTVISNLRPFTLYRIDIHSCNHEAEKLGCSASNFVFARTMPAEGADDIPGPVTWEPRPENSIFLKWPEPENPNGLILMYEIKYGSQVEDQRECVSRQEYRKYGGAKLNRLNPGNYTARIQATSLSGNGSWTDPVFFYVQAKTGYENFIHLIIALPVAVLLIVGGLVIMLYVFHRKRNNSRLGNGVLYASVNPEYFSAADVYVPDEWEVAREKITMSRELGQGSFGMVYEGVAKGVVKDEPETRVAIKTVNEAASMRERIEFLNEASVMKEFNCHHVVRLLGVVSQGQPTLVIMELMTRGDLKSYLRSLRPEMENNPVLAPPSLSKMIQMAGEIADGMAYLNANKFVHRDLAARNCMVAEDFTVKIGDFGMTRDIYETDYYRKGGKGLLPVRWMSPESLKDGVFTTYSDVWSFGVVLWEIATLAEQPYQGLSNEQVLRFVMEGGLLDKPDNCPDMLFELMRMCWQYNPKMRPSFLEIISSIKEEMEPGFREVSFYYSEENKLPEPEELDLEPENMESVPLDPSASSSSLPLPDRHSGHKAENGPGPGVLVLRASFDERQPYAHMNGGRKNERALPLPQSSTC
Aurora kinase C, sequence (Q9UQB9 whole entry): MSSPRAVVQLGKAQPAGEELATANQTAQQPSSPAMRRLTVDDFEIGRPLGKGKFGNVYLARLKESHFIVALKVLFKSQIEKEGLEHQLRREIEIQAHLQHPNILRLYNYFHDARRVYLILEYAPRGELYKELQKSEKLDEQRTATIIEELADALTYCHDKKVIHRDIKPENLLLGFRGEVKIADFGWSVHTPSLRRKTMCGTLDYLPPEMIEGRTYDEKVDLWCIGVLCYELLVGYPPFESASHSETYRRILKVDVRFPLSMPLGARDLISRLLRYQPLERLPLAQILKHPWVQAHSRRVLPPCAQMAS

As for `N#Cc1ccc(N2CC[C@@H](Nc3c(C(N)=O)cnc4[nH]ccc34)[C@@H](F)C2)nc1`, the 50% inhibitory concentration (IC50) in data set [1] was greater than 1000 nM; in [3], 980 nM; in data set [5], 1000 nM; in [6] it was greater than 1000 nM; in data set [7], greater than 1000 nM; in [8] it was greater than 100000 nM. Moreover, the IC50 in [10] is greater than 1000 nM; in data set [11], greater than 1000 nM; in data set [12], greater than 1000 nM; in [13], 190 nM; in [16] it was greater than 1000 nM; in data set [17], greater than 1000 nM. In addition, the IC50 in data set [21] was 11 nM. For the same compound, the CLint scaled at 0.2 µM in data set [2] amounted to 4.8 mL/min/kg; in data set [9] it was 27.5 mL/min/kg; in data set [20], 9.9 mL/min/kg. The same compound returned a Cmax in data set [4] of 633 ng/mL. Also, the time of peak concentration (Tmax) in [14] was 3.3 h; in [15], 2.7 h. In data set [18], the half-life was 5.4 h. In addition, in data set [19], the Papp came out at 9 ×10⁻⁶ cm/s.
